According to US7538216B2, “Guanidino phenylalanin compounds used as urokinase inhibitors” (Wilex AG, priority 2002, dated 2009):
Counter-ions that a name gives are not always drawn.

How the values were obtained:
Assay type in all cases: biochemical
[1] = biological target: T1, sc-urokinase (Homo sapiens, UniProt P00749); assay: In-vitro inhibition of urokinase (chromogenic substrate, Dixon); settings: 25° C, pH 8.0; mean of at least 3 determinations
T1 construct: purchased Ribosepharm GmbH, Haan, Germany
Experimental: (§1) In order to determine the activity of the inhibitor, 200 μl of Tris buffer (0.05 mol/l, containing the inhibitor, 0.154 mol of NaCl/l, 5% ethanol, pH 8.0), 25 μl of substrate (Pefachrome UK or Bz-βAla-Gly-Arg-pNA in H2O; Pentapharm Ltd., Basle, Switzerland) and 50 μl of sc-urokinase (Ribosepharm GmbH, Haan, Germany) were incubated at 25° C. After 3 min, the reaction was terminated by adding 25 μl of acetic acid (50%) and the absorption was determined at 405 nm using a Microplate Reader (MR 5000, Dynatech, Denkendorf, Germany). The Ki values were determined in accordance with Dixon by means of linear regression using a computer program. The Ki values are the means of at least 3 determinations; the standard deviation was less than 25%.

[2] = biological target: T2, plasmin (Homo sapiens, UniProt P00747); assay: In-vitro inhibition of serine proteases of the trypsin type: plasmin
T2 construct: uPA mediates the proteolytic cleavage of plasminogen to give plasmin
Experimental: as §1
(§2) The inhibitory effect for the enzymes employed was determined in accordance with the principle described in Example 3.

[3] = biological target: thrombin (Homo sapiens, UniProt P00734); assay: In-vitro inhibition of serine proteases of the trypsin type: thrombin
Experimental: as §1, §2

T2 sequence (P00747 581-810 limits assumed, species assumed): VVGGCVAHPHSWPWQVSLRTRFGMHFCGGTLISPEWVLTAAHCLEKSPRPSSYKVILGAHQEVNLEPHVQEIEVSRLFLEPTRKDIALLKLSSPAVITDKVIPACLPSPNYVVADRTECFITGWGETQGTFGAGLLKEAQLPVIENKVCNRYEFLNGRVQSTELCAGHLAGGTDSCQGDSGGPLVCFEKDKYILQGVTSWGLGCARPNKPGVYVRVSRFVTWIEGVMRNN
T2 sequence (P00747 97-580 partner limits assumed, species assumed): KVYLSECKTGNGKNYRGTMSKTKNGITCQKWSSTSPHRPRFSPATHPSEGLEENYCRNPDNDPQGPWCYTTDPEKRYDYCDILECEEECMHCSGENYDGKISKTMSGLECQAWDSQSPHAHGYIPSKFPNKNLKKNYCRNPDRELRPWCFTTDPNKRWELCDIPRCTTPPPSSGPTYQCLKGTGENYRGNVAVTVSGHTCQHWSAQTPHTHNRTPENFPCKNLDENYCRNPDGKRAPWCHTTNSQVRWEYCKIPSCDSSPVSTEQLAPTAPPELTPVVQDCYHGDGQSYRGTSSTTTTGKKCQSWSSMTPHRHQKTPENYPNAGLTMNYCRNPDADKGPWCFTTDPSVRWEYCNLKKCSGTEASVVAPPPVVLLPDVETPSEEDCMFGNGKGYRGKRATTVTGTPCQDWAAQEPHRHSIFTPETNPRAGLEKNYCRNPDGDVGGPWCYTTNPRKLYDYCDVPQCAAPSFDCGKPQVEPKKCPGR

- Ki [1]: 0.47 µM
- Ki [2]: 3.8 µM
- Ki [3]: ≥ 12 µM
Structure (SMILES): CCOC(=O)N1CCN(C(=O)[C@H](Cc2cccc(NC(=N)N)c2)NS(=O)(=O)c2c(C(C)C)cc(C(C)C)cc2C(C)C)CC1 [Example 1, Nα-2,4,6-triisopropylphenylsulfonyl-3-guanidino-(L)-phenylalanine-4-ethoxycarbonylpiperazine hydrochloride]
